Reference: patent US20230227477A1, “COMPOUNDS FOR SENSING REACTIVE OXYGEN SPECIES AND METHODS FOR USING THE SAME” (WAKE FOREST UNIVERSITY HEALTH SCIENCES, priority 2020, published 2023)
One block for each compound: values may come before it.

Legend:
HeLa cells [1] = assay: Protective effects on HeLa cells under H2O2-induced oxidative stress (CCK-8 viability); format: cell-based, human
Protocol: Next, the protective effects of compound RAH393 on cultured HeLa cells which were under oxidative stress were examined. A population of cells (>6×10^6 cells/mL as determined with a hemocytometer) was diluted with FBS-free DMEM:F12-K, 1:1, 1% penicillin-streptomycin, and 1% L-glutamine to give a final concentration of 50,000 cells/mL. To a 96-well plate was added 100 μL of cell media solution resulting in a total of 5 k cells per well. Plates were then incubated at 37° C. in an atmosphere of 5% CO2 and 95% humidified air for 24 h. Confluent cells were then pre-incubated in FBS-free media with compound RAH393 (or compound 5) (200 μM) for 1 h followed by treatment with H2O2 (200 μM) for an additional 1 h incubation period. Control wells with H2O2 alone (200 μM) were also evaluated on the same plate. After a total incubation period of 2 h, cell contents were then replaced with 100 μL of fresh FBS-free media with 10% CCK-8. Cells were then incubated for 3 h at 37° C. and cell viability was assessed by measuring the resulting absorbance at 450 nm using a 96-well plate reader (BioTek SYNERGY-HTX multi-mode reader, Winooski, Vt.).

[2] = DNFB trapping of released persulfide, LCMS (validation as ROS-activated persulfide donor); format: physicochemical; settings: 200 μM compound, 1 mM DNFB; for formation of trapped disulfide compound 7 (persulfide release), LCMS: 1 mM H2O2, ammonium bicarbonate buffer, room temperature
Protocol: Initially, 5 mM stock solutions of compound RAH393, compound 5, and 2,4-dinitrofluorobenzene (DNFB) were prepared in 200-proof ethanol. In addition, a 100 mM stock solution of hydrogen peroxide in ammonium bicarbonate buffer (1 mM, pH 7.0) was prepared immediately prior to use. To a conical vial containing 1500 μL of 1M ammonium bicarbonate was then added 80 μL of the 5 mM stock of compound RAH393 (or control compound 5), 400 μL of the 5 mM DNFB stock, and 20 μL of 100 mM hydrogen peroxide giving a final concentrations of 200 μM compound RAH393 (or compound 5), 1 mM DNFB, and 1 mM H2O2. At the designated timepoints, a 100 μL aliquot of the room-temperature reaction was diluted with 900 μL of HPLC-grade methanol with 0.1% formic acid for analysis. 75 μL of the resultant solution was then injected onto C18 reverse phase column (Agilent Technologies, SB-C18 Analytical HPLC Col. 4.6×150) and eluted with HPLC-grade methanol (0.1% formic acid) and HPLC-grade water (0.1% formic acid) at a flow rate of 200 μL/min using the following gradient: 0-2 min, 90:10 water:methanol; 2-8 min, 40:60 water:methanol; 8-30 min, 10:90 water:methanol; 30-40 min, 5:95 water:methanol. Retention times of lactone compound 3 (25.0 min), compound RAH393 (35.6 min), compound 5 (27.7 min), and DNFB (16.5 min) were independently validated. When this assay was run using compound RAH393, in addition to compound 7 (21.7 min), the tri- and tetrasulfides of N-acetylcysteamine were also present (14.1 min and 16.2 min, respectively), further confirming persulfide release from compound RAH393.

[3] = Persulfide release from compounds 4a and 4b with H2O2 monitored by fluorescence; format: physicochemical; settings: 20 μM compound; for change of relative fluorescence intensity over time with H2O2 (in words): 200 μM H2O2, PBS pH 7.4, 37° C., 3 hours
Protocol: Referring to FIGS. 6A and 6B, compounds 4a and 4b (20 μM) were exposed to H2O2 (200 μM) in PBS buffer (pH 7.4) at 37° C. and the resulting fluorescence intensity was monitored over a period of 3 hours. Immediately prior to use, a 200 μM stock solutions of compound 4a and compound 4b were prepared in cell-grade dimethylsulfoxide (DMSO), and a 200 μM stock of cetyltrimethylammonium bromide (CTAB) was prepared in PBS buffer (pH 7.4). Next, a 2 mM hydrogen peroxide stock solution was prepared by diluting 30% hydrogen peroxide in freshly degassed PBS Buffer (pH 7.4). 30 μL of compound 4a (or compound 4b) was then added to a 96 well plate and diluted with 90 μL of PBS buffer and 150 μL of the CTAB stock solution. The assay was then initiated by the addition of 30 μL, of the 2 mM hydrogen peroxide stock solution rendering a final concentration of 20 μM for compound 4a (or compound 4b), 200 μM of hydrogen peroxide, and 100 μM of CTAB. The control reactions without peroxide were conducted by adding 30 μL of the 200 μM stock of compound 4a to a 96 well plate and diluting with 120 μL of PBS buffer and 150 μL of 200 μM CTAB to make a final concentration of 20 μM of compound 4a and 100 μM of CTAB. The plate was inserted into a 96-well plate reader (BioTek SYNERGY-HTX multi-mode reader, Winooski, Vt.) heated to 37° C., and agitated to ensure homogeneity. The plate was read continuously using a 360/40 nm fluorescence filter and values were recorded as the mean+/−STDEV from three experiments.

[4] = Turn-on fluorescence response of compounds 1a, 1b, 1c in PBS buffer alone and with H2O2; format: physicochemical; settings: for fluorescence (ex: 330 nm, em: 452 nm), in the presence of 1 mM H2O2 / fluorescence (ex: 330 nm, em: 452 nm), PBS Buffer alone / turn-on fluorescence response towards H2O2 (in words): 20 μM probe; for fluorescence (ex: 330 nm, em: 452 nm), in the presence of 1 mM H2O2 / fluorescence (ex: 330 nm, em: 452 nm), PBS Buffer alone: PBS pH 7.4, 37° C., 180 min; for fluorescence (ex: 330 nm, em: 452 nm), PBS Buffer alone: no H2O2; for turn-on fluorescence response towards H2O2 (in words): 1 mM H2O2 vs PBS alone, 3 h
Protocol: Stock solutions of each probe (compounds 1a, 1b, 1c) at 222.2 μM were prepared in 200-proof ethanol. In addition, a 100 mM hydrogen peroxide stock solution was prepared in freshly degassed 1× PBS buffer (pH 7.4) immediately prior to use. Each reaction vial was prepared using 21.6 mL of PBS buffer, 2160 μL of compound 1a (or compound 1b or 1c) stock solution, and 240 μL of 100 mM hydrogen peroxide stock solution to give final concentrations of 20 μM of compound 1a (or compound 1b or 1c) and 1 mM of hydrogen peroxide. A control sample was prepared using 2160 μL of compound 1a (or 1b or 1c) stock solution in ethanol and diluted with 21.84 mL of freshly degassed 1× PBS buffer to give a final concentration of 20 μM of compound 1a (or 1b or 1c). The reaction and control vials were heated to 37° C. and agitated with a stir bar. At 180 min, 4 mL aliquots were transferred from reaction and control vials to individual quartz cuvettes. Fluorescence measurements (ex: 330 nm, em: 452 nm) were recorded as the mean+/−STDEV from three experiments. Referring to FIG. 3, the results for each of compounds 1a, 1b, and 1c was as follows—(1a): (1) PBS Buffer alone: 3.85+/−0.58; (2) In the presence of 1 mM H2O2: 97.01+/−12.97. (1b): (1) PBS Buffer alone: 0.55+/−0.27; (2) In the presence of 1 mM H2O2: 8.14+/−3.13. (1c): (1) PBS Buffer alone: 102.35+/−0.73; (2) In the presence of 1 mM H2O2: 129.54+/−0.55.

[5] = Rate of coumarin release from compound 1a with H2O2 (fluorescence, plate reader); format: physicochemical; settings: 20 μM compound 1a, 1000 μM H2O2, PBS pH 7.4, 37° C.
Protocol: Referring to FIG. 2A, initially appending a coumarin ester to the H2O2-responsive scaffold of compound 1a, it was hypothesized that the release of payload, in response to H2O2, could be monitored via fluorescence spectroscopy while recording the resulting increase in fluorescence intensity upon excitation at 7-hydroxycoumarin's λmax. Therefore, to initially assess the reactivity of the scaffold towards peroxides, compound 1a (20 μM) and H2O2 (1000 μM) was incubated in PBS buffer (pH 7.4) at 37° C. Specifically, immediately prior to use, a 5 mM stock solution of hydrogen peroxide was prepared in freshly degassed 1× PBS buffer (pH 7.4) using reagent grade H2O2 (30% solution). A 200 μM stock solution of probe compound 1a was prepared in 200-proof ethanol. The rate of coumarin release was measured using concentrations of 20 μM compound 1a and 1000 μM H2O2 by adding 30 μL of the probe stock solution, 60 μL of hydrogen peroxide stock solution and 210 μL of PBS buffer (pH 7.4) to each well of a 96 well plate. The plate was inserted into a 96-well plate reader (BioTek SYNERGY-HTX hybrid multi-mode reader, Winooski, Vt.), heated to 37° C., and agitated to ensure homogeneity. The plate was read continuously using a 360/40 nm fluorescence filter and values were recorded as the mean+/−STDEV from three experiments.
To further establish the proposed mechanistic pathway, lactone compound 3 (see FIG. 2A) was isolated and characterized as a definitive byproduct of this transformation. […] Compound 3 was formed as described below.

HeLa cells [6] = assay: Cytotoxicity in HeLa cells (phosphatase assay); format: cell-based, human; settings: various concentrations, 5 h incubation
Protocol: First, compound RAH393 and lactone compound 3 were tested for cytotoxicity in HeLa cells. A population of cells (>6×10^6 cells/mL as determined with a hemocytometer) was diluted with FBS-free DMEM:F12-K, 1:1, 1% penicillin-streptomycin, and 1% L-glutamine to give a final concentration of 50,000 cells/mL. To a 96-well plate was added 100 μL of cell media solution resulting in a total of 5 k cells per well. Plates were then incubated at 37° C. in an atmosphere of 5% CO2 and 95% humidified air for 24 h. Fresh culture media (100 μL) was then added to each well of cells resulting in 200 μL of media per well followed by the addition of compound RAH393 or compound 3 at various concentrations (20 mM stock in biological-grade DMSO, resulting in no more than 1% DMSO per well). After incubating for 5 h, a phosphatase assay was used to establish cell viability as follows: Media was removed from each well and replaced with 100 μL of phosphatase solution (100 mg of phosphatase substrate, in 30 mL of 0.1 M NaOAc, pH 5.5, 0.1% Triton X-100 buffer). Following an incubation period of 30 min, 50 μL of 0.10 M NaOH was added to each well and viability was assessed spectrophotometrically at 405 nm using a 96-well plate reader (BioTek SYNERGY-HTX multi-mode reader, Winooski, Vt.). Assays were performed in triplicate and presented as the mean+/−STDEV.

Structure (SMILES): CC(=O)NCCSSC(=O)C(C)(C)Cc1ccccc1 [compound 5]
protection against H2O2-induced oxidative stress (in words) (HeLa cells [1]; pre-treatment 200 μM compound 1 h, then 200 μM H2O2 1 h): no protection
formation of trapped disulfide compound 7 (persulfide release), LCMS [2]: unsuccessful in yielding compound 7

Structure (SMILES): CC(C)(Cc1ccccc1)C(=O)SSc1ccccc1C(=O)Oc1ccc2ccc(=O)oc2c1 [compound 4b]
change of relative fluorescence intensity over time with H2O2 (in words) [3]: trivial

susceptibility to hydrolysis (in words) ([4]; PBS buffer alone, pH 7.4, 37° C.): highly susceptible to hydrolysis
Structure (SMILES): CC1(C)OB(c2ccccc2CCC(=O)Oc2ccc3ccc(=O)oc3c2)OC1(C)C [compound 1c]
fluorescence (ex: 330 nm, em: 452 nm), in the presence of 1 mM H2O2 [4]: 129.54+/−0.55
fluorescence (ex: 330 nm, em: 452 nm), PBS Buffer alone [4]: 102.35+/−0.73

half-life at 20 μM ([5]; PBS buffer with 1000 μM H2O2, pseudo first-order, read-out: half-life (t1/2) of reaction with H2O2): 29.3 min
Structure (SMILES): CC(C)(Cc1ccccc1B1OC(C)(C)C(C)(C)O1)C(=O)Oc1ccc2ccc(=O)oc2c1 [compound 1a]
turn-on fluorescence response towards H2O2 (in words) [4]: selective turn-on fluorescence response towards H2O2
fluorescence (ex: 330 nm, em: 452 nm), in the presence of 1 mM H2O2 [4]: 97.01+/−12.97
fluorescence (ex: 330 nm, em: 452 nm), PBS Buffer alone [4]: 3.85+/−0.58
time at which fluorescence intensity reached a maximum (complete release of coumarin reporter) [5]: roughly 1 h
kobs ([5]; pseudo first-order): 0.024 min⁻¹

Structure (SMILES): CC(C)(Cc1ccccc1)C(=O)Oc1ccc2ccc(=O)oc2c1 [compound 1b]
turn-on fluorescence response towards H2O2 (in words) [4]: no turn-on response
fluorescence (ex: 330 nm, em: 452 nm), in the presence of 1 mM H2O2 [4]: 8.14+/−3.13
fluorescence (ex: 330 nm, em: 452 nm), PBS Buffer alone [4]: 0.55+/−0.27

Structure (SMILES): CC1(C)Cc2ccccc2OC1=O [compound 3]
cytotoxicity toward HeLa cells (in words) (HeLa cells [6]): neither compound RAH393 nor lactone compound 3 were toxic

Structure (SMILES): OO [H2O2, hydrogen peroxide, reference compound]
cell viability (HeLa cells [1]; 200 μM H2O2 alone, 1 hour): 33%

Structure (SMILES): CC(=O)NCCSSC(=O)C(C)(C)Cc1ccccc1B1OC(C)(C)C(C)(C)O1 [compound RAH393]
increase in cell viability (HeLa cells [1]; pre-treatment 200 μM compound 1 h, then 200 μM H2O2 1 h, vs H2O2 alone): 100%
cytotoxicity toward HeLa cells (in words) (HeLa cells [6]): neither compound RAH393 nor lactone compound 3 were toxic
formation of trapped disulfide compound 7 (persulfide release), LCMS [2]: formation of disulfide compound 7 was confirmed
production of lactone compound 3, LCMS (in words) ([2]; 1 mM H2O2, over a period of 25 min): linear increase in the production of lactone compound 3

half-life at 20 μM ([3]; PBS buffer with 200 μM H2O2 and 100 μM CTAB, 200 μM H2O2, 100 μM CTAB, PBS pH 7.4, 37° C., pseudo first-order, read-out: half-life of reaction with H2O2 (persulfide release)): 60.5 min
Structure (SMILES): CC(C)(Cc1ccccc1B1OC(C)(C)C(C)(C)O1)C(=O)SSc1ccccc1C(=O)Oc1ccc2ccc(=O)oc2c1 [compound 4a]
kobs (pseudo first-order rate constant) ([3]; 200 μM H2O2, 100 μM CTAB, PBS pH 7.4, 37° C.): 0.012 min⁻¹
change of relative fluorescence intensity over time with H2O2 (in words) [3]: significantly increase over time
fluorescence profile in PBS buffer alone (in words) ([3]; no H2O2, 100 μM CTAB, 37° C.): nearly identical fluorescence profile to that of compound 4b
